pIC50: −log10 of the molar value.
test system: TK-10; test: cells; format: functional, cell-based, Homo sapiens; conditions: Homo sapiens, TK-10;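 further: growth inhibition of TK-10 cells, read out in a cell viability assay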
Description: SANGER: Inhibition of human TK10 cell growth in a cell viability assay.

Compound	pIC50
CCN(CC)CCCCNc1ncc2cc(-c3cc(OC)cc(OC)c3)c(NC(=O)NC(C)(C)C)nc2n1 [PD-173074]	< 5.70

test system: MMAC-SF; test: cells; format: functional, cell-based, Homo sapiens; conditions: Homo sapiens, MMAC-SF;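 further: growth inhibition of human MMAC-SF cells, read out with a cell viability assay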
Description: SANGER: Inhibition of human MMAC-SF cell growth in a cell viability assay.

Compound	pIC50
CCN(CC)CCCCNc1ncc2cc(-c3cc(OC)cc(OC)c3)c(NC(=O)NC(C)(C)C)nc2n1 [PD-173074]	< 5.70

test system: KURAMOCHI; test: cells; format: functional, cell-based, Homo sapiens; conditions: Homo sapiens, KURAMOCHI;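 further: growth inhibition of KURAMOCHI cells, read out with a cell viability assay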
Description: SANGER: Inhibition of human KURAMOCHI cell growth in a cell viability assay.

Compound	pIC50
CCN(CC)CCCCNc1ncc2cc(-c3cc(OC)cc(OC)c3)c(NC(=O)NC(C)(C)C)nc2n1 [PD-173074]	< 5.70

test system: no-10; test: cells; format: functional, cell-based, Homo sapiens; conditions: Homo sapiens;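 further: growth inhibition of no-10 cells, read out with a cell viability assay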
Description: SANGER: Inhibition of human no-10 cell growth in a cell viability assay.

Compound	pIC50
CCN(CC)CCCCNc1ncc2cc(-c3cc(OC)cc(OC)c3)c(NC(=O)NC(C)(C)C)nc2n1 [PD-173074]	< 5.70

test system: MEG-01; test: cells; format: functional, cell-based, Homo sapiens; conditions: Homo sapiens, MEG-01;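 further: growth inhibition of MEG-01 cells, read out by a cell viability assay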
Description: SANGER: Inhibition of human MEG-01 cell growth in a cell viability assay.

Compound	pIC50
CCN(CC)CCCCNc1ncc2cc(-c3cc(OC)cc(OC)c3)c(NC(=O)NC(C)(C)C)nc2n1 [PD-173074]	< 5.70

test system: NCI-H1770; test: cells; format: functional, cell-based, Homo sapiens; conditions: Homo sapiens, NCI-H1770;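 further: growth inhibition of NCI-H1770 cells determined with a viability readout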
Description: SANGER: Inhibition of human NCI-H1770 cell growth in a cell viability assay.

Compound	pIC50
CCN(CC)CCCCNc1ncc2cc(-c3cc(OC)cc(OC)c3)c(NC(=O)NC(C)(C)C)nc2n1 [PD-173074]	< 5.70

test system: NCI-H23; test: cells; format: functional, cell-based, Homo sapiens; conditions: Homo sapiens, NCI-H23;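 further: cell viability assay measuring growth inhibition of NCI-H23 cells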
Description: SANGER: Inhibition of human NCI-H23 cell growth in a cell viability assay.

Compound	pIC50
CCN(CC)CCCCNc1ncc2cc(-c3cc(OC)cc(OC)c3)c(NC(=O)NC(C)(C)C)nc2n1 [PD-173074]	< 5.70

test system: KE-37; test: cells; format: functional, cell-based, Homo sapiens; conditions: Homo sapiens, KE-37;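 further: growth inhibition of KE-37 cells, read out with a cell viability assay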
Description: SANGER: Inhibition of human KE-37 cell growth in a cell viability assay.

Compound	pIC50
CCN(CC)CCCCNc1ncc2cc(-c3cc(OC)cc(OC)c3)c(NC(=O)NC(C)(C)C)nc2n1 [PD-173074]	< 5.70

test system: NCI-H209; test: cells; format: functional, cell-based, Homo sapiens; conditions: Homo sapiens, NCI-H209;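 further: growth inhibition of human NCI-H209 cells, measured by a cell viability assay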
Description: SANGER: Inhibition of human NCI-H209 cell growth in a cell viability assay.

Compound	pIC50
CCN(CC)CCCCNc1ncc2cc(-c3cc(OC)cc(OC)c3)c(NC(=O)NC(C)(C)C)nc2n1 [PD-173074]	< 5.70

test system: SW 954; test: cells; format: functional, cell-based, Homo sapiens; conditions: Homo sapiens, SW 954;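 further: growth inhibition of SW954 human cancer cells, read out as cell viability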
Description: SANGER: Inhibition of human SW954 cell growth in a cell viability assay.

Compound	pIC50
CCN(CC)CCCCNc1ncc2cc(-c3cc(OC)cc(OC)c3)c(NC(=O)NC(C)(C)C)nc2n1 [PD-173074]	< 5.70

test system: KS-1; test: cells; format: functional, cell-based, Homo sapiens; conditions: Homo sapiens, KS-1;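 further: growth inhibition of KS-1 cells, read out with a cell viability assay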
Description: SANGER: Inhibition of human KS-1 cell growth in a cell viability assay.

Compound	pIC50
CCN(CC)CCCCNc1ncc2cc(-c3cc(OC)cc(OC)c3)c(NC(=O)NC(C)(C)C)nc2n1 [PD-173074]	< 5.70

test system: ES8; test: cells; format: functional, cell-based, Homo sapiens; conditions: Homo sapiens, ES8;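 further: growth inhibition of human ES8 cells, read out with a cell viability assay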
Description: SANGER: Inhibition of human ES8 cell growth in a cell viability assay.

Compound	pIC50
CCN(CC)CCCCNc1ncc2cc(-c3cc(OC)cc(OC)c3)c(NC(=O)NC(C)(C)C)nc2n1 [PD-173074]	< 5.70

test system: LU-134-A; test: cells; format: functional, cell-based, Homo sapiens; conditions: Homo sapiens, LU-134-A
Description: SANGER: Inhibition of human LU-134-A cell growth in a cell viability assay.

Compound	pIC50
CCN(CC)CCCCNc1ncc2cc(-c3cc(OC)cc(OC)c3)c(NC(=O)NC(C)(C)C)nc2n1 [PD-173074]	< 5.70

test system: HD-MY-Z; test: cells; format: functional, cell-based, Homo sapiens; conditions: Homo sapiens, HD-MY-Z;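 further: growth inhibition of HD-MY-Z cells, read out with a cell viability assay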
Description: SANGER: Inhibition of human HD-MY-Z cell growth in a cell viability assay.

Compound	pIC50
CCN(CC)CCCCNc1ncc2cc(-c3cc(OC)cc(OC)c3)c(NC(=O)NC(C)(C)C)nc2n1 [PD-173074]	< 5.70

test system: IST-MES1; test: cells; format: functional, cell-based, Homo sapiens; conditions: Homo sapiens, IST-MES1;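 further: growth inhibition of IST-MES1 cells, measured with a cell viability assay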
Description: SANGER: Inhibition of human IST-MES1 cell growth in a cell viability assay.

Compound	pIC50
CCN(CC)CCCCNc1ncc2cc(-c3cc(OC)cc(OC)c3)c(NC(=O)NC(C)(C)C)nc2n1 [PD-173074]	< 5.70

test system: HL-60; test: cells; format: functional, cell-based, Homo sapiens; conditions: Homo sapiens, HL-60;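 further: growth inhibition of human HL-60 cells, read out with a cell viability assay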
Description: SANGER: Inhibition of human HL-60 cell growth in a cell viability assay.

Compound	pIC50
CCN(CC)CCCCNc1ncc2cc(-c3cc(OC)cc(OC)c3)c(NC(=O)NC(C)(C)C)nc2n1 [PD-173074]	< 5.70

test system: MC116; test: cells; format: functional, cell-based, Homo sapiens; conditions: Homo sapiens, MC116;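 further: growth inhibition of MC116 cells, read out with a cell viability assay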
Description: SANGER: Inhibition of human MC116 cell growth in a cell viability assay.

Compound	pIC50
CCN(CC)CCCCNc1ncc2cc(-c3cc(OC)cc(OC)c3)c(NC(=O)NC(C)(C)C)nc2n1 [PD-173074]	< 5.70

test system: LU-139; test: cells; format: functional, cell-based, Homo sapiens; conditions: Homo sapiens, LU-139
Description: SANGER: Inhibition of human LU-139 cell growth in a cell viability assay.

Compound	pIC50
CCN(CC)CCCCNc1ncc2cc(-c3cc(OC)cc(OC)c3)c(NC(=O)NC(C)(C)C)nc2n1 [PD-173074]	< 5.70

test system: HCC1187; test: cells; format: functional, cell-based, Homo sapiens; conditions: Homo sapiens, HCC1187;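 further: growth inhibition of HCC1187 cells, read out with a cell viability assay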
Description: SANGER: Inhibition of human HCC1187 cell growth in a cell viability assay.

Compound	pIC50
CCN(CC)CCCCNc1ncc2cc(-c3cc(OC)cc(OC)c3)c(NC(=O)NC(C)(C)C)nc2n1 [PD-173074]	< 5.70

test system: COR-L88; test: cells; format: functional, cell-based, Homo sapiens; conditions: Homo sapiens, COR-L88;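 further: growth inhibition of COR-L88 cells, read out with a cell viability assay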
Description: SANGER: Inhibition of human COR-L88 cell growth in a cell viability assay.

Compound	pIC50
CCN(CC)CCCCNc1ncc2cc(-c3cc(OC)cc(OC)c3)c(NC(=O)NC(C)(C)C)nc2n1 [PD-173074]	< 5.70

test system: NOS-1; test: cells; format: functional, cell-based, Homo sapiens; conditions: Homo sapiens, NOS-1;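 further: growth inhibition of the human NOS-1 cell line, read out with a cell viability assay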
Description: SANGER: Inhibition of human NOS-1 cell growth in a cell viability assay.

Compound	pIC50
CCN(CC)CCCCNc1ncc2cc(-c3cc(OC)cc(OC)c3)c(NC(=O)NC(C)(C)C)nc2n1 [PD-173074]	< 5.70

test system: ES5; test: cells; format: functional, cell-based, Homo sapiens; conditions: Homo sapiens, ES5;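 further: growth inhibition of human ES5 cells, read out by a cell viability assay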
Description: SANGER: Inhibition of human ES5 cell growth in a cell viability assay.

Compound	pIC50
CCN(CC)CCCCNc1ncc2cc(-c3cc(OC)cc(OC)c3)c(NC(=O)NC(C)(C)C)nc2n1 [PD-173074]	< 5.70

test system: HCE-4; test: cells; format: functional, cell-based, Homo sapiens; conditions: Homo sapiens, HCE-4;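 further: cell viability assay measuring inhibition of growth in the human HCE-4 cell line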
Description: SANGER: Inhibition of human HCE-4 cell growth in a cell viability assay.

Compound	pIC50
CCN(CC)CCCCNc1ncc2cc(-c3cc(OC)cc(OC)c3)c(NC(=O)NC(C)(C)C)nc2n1 [PD-173074]	< 5.70

test system: GI-1; test: cells; format: functional, cell-based, Homo sapiens; conditions: Homo sapiens, GI-1;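 further: growth inhibition of human GI-1 cells, measured with a cell viability readout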
Description: SANGER: Inhibition of human GI-1 cell growth in a cell viability assay.

Compound	pIC50
CCN(CC)CCCCNc1ncc2cc(-c3cc(OC)cc(OC)c3)c(NC(=O)NC(C)(C)C)nc2n1 [PD-173074]	< 5.70

test system: SF-539; test: cells; format: functional, cell-based, Homo sapiens; conditions: Homo sapiens, SF-539;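 further: Read-out is a cell viability assay, with IC50 reflecting inhibition of cell growth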
Description: SANGER: Inhibition of human SF539 cell growth in a cell viability assay.

Compound	pIC50
CCN(CC)CCCCNc1ncc2cc(-c3cc(OC)cc(OC)c3)c(NC(=O)NC(C)(C)C)nc2n1 [PD-173074]	< 5.70

test system: DJM-1; test: cells; format: functional, cell-based, Homo sapiens; conditions: Homo sapiens, DJM-1;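 further: growth inhibition of human DJM-1 cells, read out by a cell viability assay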
Description: SANGER: Inhibition of human DJM-1 cell growth in a cell viability assay.

Compound	pIC50
CCN(CC)CCCCNc1ncc2cc(-c3cc(OC)cc(OC)c3)c(NC(=O)NC(C)(C)C)nc2n1 [PD-173074]	< 5.70

test system: K562; test: cells; format: functional, cell-based, Homo sapiens; conditions: Homo sapiens, K562
Description: SANGER: Inhibition of human K-562 cell growth in a cell viability assay.

Compound	pIC50
CCN(CC)CCCCNc1ncc2cc(-c3cc(OC)cc(OC)c3)c(NC(=O)NC(C)(C)C)nc2n1 [PD-173074]	< 5.70

test system: KG-1; test: cells; format: functional, cell-based, Homo sapiens; conditions: Homo sapiens, KG-1;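 further: growth inhibition of KG-1 cells, read out by a cell viability assay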
Description: SANGER: Inhibition of human KG-1 cell growth in a cell viability assay.

Compound	pIC50
CCN(CC)CCCCNc1ncc2cc(-c3cc(OC)cc(OC)c3)c(NC(=O)NC(C)(C)C)nc2n1 [PD-173074]	7.29

test system: RKO; test: cells; format: functional, cell-based, Homo sapiens; conditions: Homo sapiens, RKO;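 further: growth inhibition of human RKO cells, read out with a cell viability assay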
Description: SANGER: Inhibition of human RKO cell growth in a cell viability assay.

Compound	pIC50
CCN(CC)CCCCNc1ncc2cc(-c3cc(OC)cc(OC)c3)c(NC(=O)NC(C)(C)C)nc2n1 [PD-173074]	< 5.70

test system: NTERA-2-cl-D1; test: cells; format: functional, cell-based, Homo sapiens; conditions: Homo sapiens, NTERA-2-cl-D1;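 further: inhibition of cell growth, measured with a cell viability assay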
Description: SANGER: Inhibition of human NTERA-S-cl-D1 cell growth in a cell viability assay.

Compound	pIC50
CCN(CC)CCCCNc1ncc2cc(-c3cc(OC)cc(OC)c3)c(NC(=O)NC(C)(C)C)nc2n1 [PD-173074]	< 5.70

test system: NCI-H1155; test: cells; format: functional, cell-based, Homo sapiens; conditions: Homo sapiens, NCI-H1155;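 further: cell growth inhibition measured by a viability assay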
Description: SANGER: Inhibition of human NCI-H1155 cell growth in a cell viability assay.

Compound	pIC50
CCN(CC)CCCCNc1ncc2cc(-c3cc(OC)cc(OC)c3)c(NC(=O)NC(C)(C)C)nc2n1 [PD-173074]	< 5.70

test system: NCI-H1838; test: cells; format: functional, cell-based, Homo sapiens; conditions: Homo sapiens, NCI-H1838;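 further: growth inhibition of NCI-H1838 cells, determined with a cell viability readout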
Description: SANGER: Inhibition of human NCI-H1838 cell growth in a cell viability assay.

Compound	pIC50
CCN(CC)CCCCNc1ncc2cc(-c3cc(OC)cc(OC)c3)c(NC(=O)NC(C)(C)C)nc2n1 [PD-173074]	< 5.70

test system: OS-RC-2; test: cells; format: functional, cell-based, Homo sapiens; conditions: Homo sapiens, OS-RC-2;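 further: growth inhibition of human OS-RC-2 cells, measured by a cell viability assay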
Description: SANGER: Inhibition of human OS-RC-2 cell growth in a cell viability assay.

Compound	pIC50
CCN(CC)CCCCNc1ncc2cc(-c3cc(OC)cc(OC)c3)c(NC(=O)NC(C)(C)C)nc2n1 [PD-173074]	< 5.70

test system: EW-16; test: cells; format: functional, cell-based, Homo sapiens; conditions: Homo sapiens, EW-16;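 further: growth inhibition of human EW-16 cells, read out as cell viability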
Description: SANGER: Inhibition of human EW-16 cell growth in a cell viability assay.

Compound	pIC50
CCN(CC)CCCCNc1ncc2cc(-c3cc(OC)cc(OC)c3)c(NC(=O)NC(C)(C)C)nc2n1 [PD-173074]	< 5.70

test system: RCC10RGB; test: cells; format: functional, cell-based, Homo sapiens; conditions: Homo sapiens, RCC10RGB;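 further: growth inhibition of human RCC10RGB cells, read out by a cell viability assay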
Description: SANGER: Inhibition of human RCC10RGB cell growth in a cell viability assay.

Compound	pIC50
CCN(CC)CCCCNc1ncc2cc(-c3cc(OC)cc(OC)c3)c(NC(=O)NC(C)(C)C)nc2n1 [PD-173074]	< 5.70

test system: EKVX; test: cells; format: functional, cell-based, Homo sapiens; conditions: Homo sapiens, EKVX;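 further: growth inhibition of human EKVX cells, read out with a cell viability assay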
Description: SANGER: Inhibition of human EKVX cell growth in a cell viability assay.

Compound	pIC50
CCN(CC)CCCCNc1ncc2cc(-c3cc(OC)cc(OC)c3)c(NC(=O)NC(C)(C)C)nc2n1 [PD-173074]	< 5.70

test system: CW-2; test: cells; format: functional, cell-based, Homo sapiens; conditions: Homo sapiens, CW-2;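 further: growth inhibition of CW-2 cells, read out by a cell viability assay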
Description: SANGER: Inhibition of human CW-2 cell growth in a cell viability assay.

Compound	pIC50
CCN(CC)CCCCNc1ncc2cc(-c3cc(OC)cc(OC)c3)c(NC(=O)NC(C)(C)C)nc2n1 [PD-173074]	< 5.70

test system: A388; test: cells; format: functional, cell-based, Homo sapiens; conditions: Homo sapiens, A388;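 further: growth inhibition of human A388 cells, read out with a cell viability assay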
Description: SANGER: Inhibition of human A388 cell growth in a cell viability assay.

Compound	pIC50
CCN(CC)CCCCNc1ncc2cc(-c3cc(OC)cc(OC)c3)c(NC(=O)NC(C)(C)C)nc2n1 [PD-173074]	< 5.70

test system: MLMA; test: cells; format: functional, cell-based, Homo sapiens; conditions: Homo sapiens, MLMA;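 further: growth inhibition of MLMA cells (human), determined through a cell viability readout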
Description: SANGER: Inhibition of human MLMA cell growth in a cell viability assay.

Compound	pIC50
CCN(CC)CCCCNc1ncc2cc(-c3cc(OC)cc(OC)c3)c(NC(=O)NC(C)(C)C)nc2n1 [PD-173074]	< 5.70

test system: KINGS-1; test: cells; format: functional, cell-based, Homo sapiens; conditions: Homo sapiens, KINGS-1;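 further: cell viability assay measuring suppression of KINGS-1 cell growth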
Description: SANGER: Inhibition of human KINGS-1 cell growth in a cell viability assay.

Compound	pIC50
CCN(CC)CCCCNc1ncc2cc(-c3cc(OC)cc(OC)c3)c(NC(=O)NC(C)(C)C)nc2n1 [PD-173074]	< 5.70

test system: KM-H2; test: cells; format: functional, cell-based, Homo sapiens; conditions: Homo sapiens, KM-H2;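 further: growth inhibition of KM-H2 cells, read out by a cell viability assay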
Description: SANGER: Inhibition of human KM-H2 cell growth in a cell viability assay.

Compound	pIC50
CCN(CC)CCCCNc1ncc2cc(-c3cc(OC)cc(OC)c3)c(NC(=O)NC(C)(C)C)nc2n1 [PD-173074]	< 5.70

test system: LB2241-RCC; test: cells; format: functional, cell-based, Homo sapiens; conditions: Homo sapiens, LB2241-RCC;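 further: cell viability assay measuring how strongly the cultured human renal carcinoma line is prevented from growing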
Description: SANGER: Inhibition of human LB2241-RCC cell growth in a cell viability assay.

Compound	pIC50
CCN(CC)CCCCNc1ncc2cc(-c3cc(OC)cc(OC)c3)c(NC(=O)NC(C)(C)C)nc2n1 [PD-173074]	< 5.70

test system: Mo; test: cells; format: functional, cell-based, Homo sapiens; conditions: Homo sapiens, Mo
Description: SANGER: Inhibition of human Mo-T cell growth in a cell viability assay.

Compound	pIC50
CCN(CC)CCCCNc1ncc2cc(-c3cc(OC)cc(OC)c3)c(NC(=O)NC(C)(C)C)nc2n1 [PD-173074]	< 5.70

test system: PSN1; test: cells; format: functional, cell-based, Homo sapiens; conditions: Homo sapiens, PSN1;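 further: suppression of growth of human PSN1 cells, read out by a cell viability assay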
Description: SANGER: Inhibition of human PSN1 cell growth in a cell viability assay.

Compound	pIC50
CCN(CC)CCCCNc1ncc2cc(-c3cc(OC)cc(OC)c3)c(NC(=O)NC(C)(C)C)nc2n1 [PD-173074]	< 5.70

test system: A4-Fuk; test: cells; format: functional, cell-based, Homo sapiens; conditions: Homo sapiens, A4-Fuk;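 further: growth inhibition of A4-Fuk cells, read out by a cell viability assay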
Description: SANGER: Inhibition of human A4-Fuk cell growth in a cell viability assay.

Compound	pIC50
CCN(CC)CCCCNc1ncc2cc(-c3cc(OC)cc(OC)c3)c(NC(=O)NC(C)(C)C)nc2n1 [PD-173074]	< 5.70

test system: SHP77; test: cells; format: functional, cell-based, Homo sapiens, SHP-77; conditions: Homo sapiens, SHP77;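 further: growth inhibition of human SHP-77 cells measured by a cell viability assay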
Description: SANGER: Inhibition of human SHP-77 cell growth in a cell viability assay.

Compound	pIC50
CCN(CC)CCCCNc1ncc2cc(-c3cc(OC)cc(OC)c3)c(NC(=O)NC(C)(C)C)nc2n1 [PD-173074]	< 5.70

test system: COLO-320-HSR; test: cells; format: functional, cell-based, Homo sapiens; conditions: Homo sapiens, COLO-320-HSR;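 further: growth inhibition of COLO-320-HSR cells, determined with a cell viability assay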
Description: SANGER: Inhibition of human COLO-320-HSR cell growth in a cell viability assay.

Compound	pIC50
CCN(CC)CCCCNc1ncc2cc(-c3cc(OC)cc(OC)c3)c(NC(=O)NC(C)(C)C)nc2n1 [PD-173074]	< 5.70

test system: MOLT-4; test: cells; format: functional, cell-based, Homo sapiens; conditions: Homo sapiens, MOLT-4;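 further: growth inhibition of MOLT-4 cells, determined with a cell viability readout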
Description: SANGER: Inhibition of human MOLT-4 cell growth in a cell viability assay.

Compound	pIC50
CCN(CC)CCCCNc1ncc2cc(-c3cc(OC)cc(OC)c3)c(NC(=O)NC(C)(C)C)nc2n1 [PD-173074]	< 5.70
